In patent EP0059009A1, “Pharmaceutical compositions containing quinoline derivatives as active component, a method for the preparation of such compositions, new quinoline derivatives and a method for the preparation thereof” (ACF Chemiefarma N.V., priority 1981, dated 1982):

Legend:
guinea pigs = assay: Guinea pigs electrostimulation test (arrhythmias induced by electrostimulation of the right ventricle); format: in vivo; details: for Percent increase in voltage (%) required for arrhythmia: given intraduodenally 30 min before stimulation, anaesthetised guinea pigs, treated vs control animals
Method: Arrhythmias are induced in guinea pigs by electro- stimulation of the right ventricle of the heart. The animals are anaesthesized with urethane (1.2 g/kg i.p.) and artificially respirated before a needle electrode is inserted in the right venticle of the heart. Substances are given intraduodinally 30 min. before the stimulation at a standard dose of 32 mg/kg.
The voltage needed for induction of extra systoles in control animals (n = 6) is compared with that required for induction of arrhythmias in treated animals (n = 6).
-This method is based on the work of L. Szekeres and G.J. Papp, Naunyn-Schmiedebergs Arch. Exp. Path. Pharmak., 245, 70 (1963).

malaria = details: reported by Ainly and King, Proc. Roy. Soc. (London) B 125, 49 (1938); cited from earlier work

Structure (SMILES)	Percent increase in voltage (%) required for arrhythmia (guinea pigs; Dose 16 mg/kg) [%]	Percent increase in voltage (%) required for arrhythmia (guinea pigs; Dose 32 mg/kg) [%]	other results
C=CC1CNCCC1CCC(O)c1ccnc2ccc(OC)cc12 (stereo not drawn) [I, Quinicinol-l.bifumarate]	25	114	
C=CC1CNCCC1CCC(O)c1ccnc2ccccc12 (stereo not drawn) [III]		35	
CCC1CNCCC1CCC(O)c1ccnc2ccc(OC)cc12 (stereo not drawn) [II]	33.9	176	
CCC1CNCCC1CC(O)Cc1ccnc2ccc(OC)cc12 (stereo not drawn) [Reference com-pound of formula 6a, reference compound]	0		anti-arrhythmic screen using the electro-stimulation test (guinea pigs; result in words, dose not given): inactive
CCC1CNCCC1CCC(O)c1ccnc2ccc(OCCC(C)C)cc12 (stereo not drawn) [VII]			Percent increase in voltage (%) required for arrhythmia (guinea pigs; Dose 23.5 mg/kg): 85%
CCC1CNCCC1CCC(O)c1ccnc2ccc(OC)cc12 (stereo not drawn) [dihydroquiniconol, dihydroquinicinol]			anti-malaria activity (malaria): did not show anti-malaria activity
